Measured values taken from US10752612B2, “PLK4 inhibitors” (LUDWIG INSTITUTE FOR CANCER RESEARCH LTD, priority 2015, dated 2020).

Columns and labels:
TNK1 = biological target: T1, TNK1 (Homo sapiens, UniProt Q13470); assay: Radiometric kinase assay, off-target TNK1; format: biochemical; conditions: off-target from DiscoveRx kinome profiling
T1 construct: Reaction Biology (Malvern, Pa.), contract assay
T1 sequence (Q13470 1-666): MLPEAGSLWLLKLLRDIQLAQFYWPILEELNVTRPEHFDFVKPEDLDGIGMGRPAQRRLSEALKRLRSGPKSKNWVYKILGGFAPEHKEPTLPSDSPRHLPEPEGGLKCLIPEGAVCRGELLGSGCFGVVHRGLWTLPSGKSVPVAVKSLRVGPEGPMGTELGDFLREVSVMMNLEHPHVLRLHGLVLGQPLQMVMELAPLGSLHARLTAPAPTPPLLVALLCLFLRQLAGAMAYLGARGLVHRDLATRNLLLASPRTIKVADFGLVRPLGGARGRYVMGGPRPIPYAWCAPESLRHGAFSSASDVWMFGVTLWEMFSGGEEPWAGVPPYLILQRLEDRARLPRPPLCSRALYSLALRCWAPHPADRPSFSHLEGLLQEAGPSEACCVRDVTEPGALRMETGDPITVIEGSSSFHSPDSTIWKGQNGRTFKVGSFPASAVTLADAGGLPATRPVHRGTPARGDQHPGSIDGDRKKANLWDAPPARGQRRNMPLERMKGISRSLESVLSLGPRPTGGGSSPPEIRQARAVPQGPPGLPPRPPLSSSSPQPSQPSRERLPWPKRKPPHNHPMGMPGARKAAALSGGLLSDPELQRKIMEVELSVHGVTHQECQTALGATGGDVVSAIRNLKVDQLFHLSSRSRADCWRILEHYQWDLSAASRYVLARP
Experimental: (§1) Aurora B and other radiometric kinase assays were performed by Reaction Biology (Malvern, Pa.). Kinome profiling of centrinone and centrinone-B was performed by DiscoveRx (San Diego, Calif.).

JAK2 = biological target: T2, JAK2 (Homo sapiens, UniProt O60674); assay: Radiometric kinase assay, off-target JAK2; format: biochemical; conditions: off-target from DiscoveRx kinome profiling
T2 construct: Reaction Biology (Malvern, Pa.), contract assay
Experimental: as §1

[1] = tested on: full-length mouse Plk4-YFP; assay: Plk4 stabilization assay, Plk4-YFP DLD-1 cells; format: cell-based, human; conditions: 25 nM or 100 nM, 24 hours
Experimental: Plk4 stabilization assay. Expression was induced in Plk4-YFP DLD-1 cells using 1 μg/ml doxycycline. At the same time, cells were treated with the indicated concentrations of compounds. Cells were incubated for 24 hours before harvesting for Western blotting (see below).
Western blotting. […] Cell extracts were stored at −80° C. until use.

NIH/3T3 cells [2] = assay: Analysis of mitosis, NIH/3T3 centrin-GFP H2B-RFP; format: cell-based, mouse; conditions: centrosome-less NIH/3T3 cells
Experimental: Analysis of mitosis and daughter cell fate. […] Cells were seeded into 96-well cycloolefin plates at 5000 cells/well, 8-10 hours before imaging. Movies were acquired on the CV1000 with a 40×0.95 NA U-PlanApo objective. The imaging chamber was maintained at 37° C. and 5% CO2. Image acquisition and data analysis were performed using CellVoyager software. 20 fields/well were imaged. For HeLa and NIH/3T3 cells, 5×2 μm z-sections in the GFP (25% power, 125 ms, 30% gain) and RFP (25% power, 100 ms, 30% gain) channels were captured in each field, at 5-minute intervals for 24 hours. For RPE1 cells, 5×2 μm z-sections in the GFP (20% power, 100 ms, 30% gain) and RFP (25% power, 100 ms, 30% gain) channels were captured in each field, at 5-minute intervals for 8 hours. To track RPE1 daughter cell fate, imaging was then switched to 3×4 μm z-sections in the RFP channel only, at 10-minute intervals for 48 hours. Mitosis was measured from nuclear envelope breakdown to anaphase onset (or arrest). Results represent combined measurements of 100 mother cells per condition from 2-4 independent experiments.

RPE1 cells = assay: Passaging assay and flow cytometry, RPE1; format: cell-based, human
Experimental: Passaging assays. Cells were seeded into 10 cm tissue culture plates at 150,000 (HeLa, NIH/3T3 and RPE1) or 200,000 cells/plate (primary fibroblasts). Compounds were added at the indicated concentrations. At 4-day intervals, cells were harvested, counted using a TC10 cell counter, and re-seeded into new plates at the densities above. Results are from 2 independent experiments.
Flow cytometry. Cells were seeded into 15 cm tissue culture plates such that each plate was 50-80% confluent at the time of harvesting. Cells were de-adhered by trypsinization and pelleted in 15 ml tubes by centrifugation. Each pellet was resuspended in 0.3 mL PBS, and 0.7 mL ice-cold 100% ethanol was added to the tube while gently vortexing. Fixed cells were stored at 4° C. for up to 2 weeks. For DNA content analysis, fixed cells were pelleted, washed twice with PBS, and resuspended in 0.5 mL PBS+2% BSA and Alexa488-conjugated anti-p-H3(Ser10) antibody. Samples were incubated for 1 hour at 4° C., then washed twice with PBS+2% BSA. Pellets were resuspended in 1 mL PBS+2% BSA, 10 μg/ml propidium iodide (Sigma-Aldrich), 500 µg/ml RNAse A (Thermo Scientific). Samples were incubated at 37° C. for 30 minutes, then transferred to 12×75 mm tubes for analysis. Data were acquired using FACSDiva software on a LSR II flow cytometer (BD Biosciences). 50,000 cells were analyzed per condition. Cell cycle fitting was performed using ModFit LT (Verity Software House).

NIH/3T3 cells [3] = assay: Cilia formation assay in NIH/3T3 cells; format: cell-based, mouse; conditions: serum-starved NIH/3T3
Experimental: Cilia formation assay in NIH/3T3 cells. […] Cells were seeded onto coverslips and starved for 40 hours by replacing their media with DMEM+0.5% defined bovine serum. Cells were then washed with PBS, fixed with 100% methanol (−20° C., 5 minutes), stained with antibodies against γ-tubulin and IFT-88, and mounted onto slides. Image acquisition and deconvolution were performed on the DeltaVision system, as above. Subsequent image processing was performed in ImageJ.

NIH/3T3 cells [4] = assay: Microtubule regrowth assay, NIH/3T3; format: cell-based, mouse; conditions: NIH/3T3, 5 minutes after washout
Experimental: Microtubule regrowth assay. […] Cells were seeded onto coverslips in 12-well plates and treated with 16 μM nocodazole for 4 hours to depolymerize microtubules. Wells were washed 6 times with PBS to remove the nocodazole, and fresh, pre-warmed medium was added to each well. After 5 minutes of recovery, cells were fixed with 100% methanol (−20° C., 5 minutes) and stained with antibodies against γ-tubulin and α-tubulin. Coverslips were mounted onto slides and imaged on a DeltaVision microscope (Applied Precision) with a 60×1.42 NA PlanApo objective and CoolSnap camera (Photometrics). Image deconvolution was performed in softWoRx (Applied Precision) and subsequent processing was performed in ImageJ (NIH).

T2 sequence (O60674 whole entry): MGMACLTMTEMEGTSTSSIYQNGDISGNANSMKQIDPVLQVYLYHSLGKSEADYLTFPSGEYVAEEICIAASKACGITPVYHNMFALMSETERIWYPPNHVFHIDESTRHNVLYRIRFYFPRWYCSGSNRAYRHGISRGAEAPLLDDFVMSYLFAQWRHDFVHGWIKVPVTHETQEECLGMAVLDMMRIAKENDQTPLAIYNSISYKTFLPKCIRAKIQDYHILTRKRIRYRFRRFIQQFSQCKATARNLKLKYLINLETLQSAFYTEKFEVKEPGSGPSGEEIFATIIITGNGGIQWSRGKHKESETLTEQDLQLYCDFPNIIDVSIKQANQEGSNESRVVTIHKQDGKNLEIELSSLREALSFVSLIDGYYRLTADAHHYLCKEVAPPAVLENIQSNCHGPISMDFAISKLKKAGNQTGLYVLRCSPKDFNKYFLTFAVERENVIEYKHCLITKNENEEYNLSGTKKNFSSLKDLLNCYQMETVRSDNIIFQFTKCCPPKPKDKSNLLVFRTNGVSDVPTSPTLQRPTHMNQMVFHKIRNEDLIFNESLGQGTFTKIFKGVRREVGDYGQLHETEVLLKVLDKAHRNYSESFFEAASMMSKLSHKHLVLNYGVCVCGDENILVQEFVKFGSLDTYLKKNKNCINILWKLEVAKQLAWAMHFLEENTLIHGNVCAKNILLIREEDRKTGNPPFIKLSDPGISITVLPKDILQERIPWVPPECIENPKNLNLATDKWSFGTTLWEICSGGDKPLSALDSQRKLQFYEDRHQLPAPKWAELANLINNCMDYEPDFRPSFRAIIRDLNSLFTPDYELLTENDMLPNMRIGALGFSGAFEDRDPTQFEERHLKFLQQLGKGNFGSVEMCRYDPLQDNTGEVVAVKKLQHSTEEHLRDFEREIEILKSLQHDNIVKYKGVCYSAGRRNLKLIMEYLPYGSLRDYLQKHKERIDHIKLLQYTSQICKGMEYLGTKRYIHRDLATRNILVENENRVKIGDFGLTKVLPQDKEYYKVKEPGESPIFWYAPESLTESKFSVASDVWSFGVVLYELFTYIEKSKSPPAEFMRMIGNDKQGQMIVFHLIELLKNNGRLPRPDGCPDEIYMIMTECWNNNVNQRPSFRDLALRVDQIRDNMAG

For `COc1c(Nc2cc(C)[nH]n2)nc(Sc2ccc(S(=O)(=O)Cc3cccc([N+](=O)[O-])c3F)cc2F)nc1N1CCOCC1` [Centrinone, 2-((2-fluoro-4-((2-fluoro-3-nitrobenzyl)sulfonyl)phenyl)thio)-5-methoxy-N-(5-methyl-1H-pyrazol-3-yl)-6-morpholinopyrimidin-4-amine], the Ki (TNK1) was 1.38 nM, the Ki (JAK2) was over 150 nM and the Plk4-YFP stabilization [1] was “more substantial stabilization”. The “increase in mitotic duration” value (NIH/3T3 cells [2]) was about 20 min, the “cell cycle after centrosome depletion” value (RPE1 cells; RPE1, 12-day passaging assay and flow cytometry) was “cell cycle arrest in G1” and the proliferation after washout (RPE1 cells; RPE1, addition Day 0, washout Day 8) was “did not”. The primary cilia (NIH/3T3 cells [3]) was “prevents assembly of primary cilia” and the “microtubule organization after nocodazole washout” value (NIH/3T3 cells [4]) was “short microtubules form throughout the cytoplasm”.
